From patent US20240409585A1, “MACROCYCLIC IMMUNOMODULATORS” (priority 2021, published 2024)
Bridge positions count the residues as written; N and C are the ends. Square brackets hold non-standard residues; d marks the D form. Peptide text beside a SMILES is read from it. * marks the point of attachment. ξ: configuration not given here. Phe(4-COOH) = N[C@@H](Cc1ccc(C(=O)O)cc1)C(=O)O; Bip = N[C@@H](Cc1ccc(-c2ccccc2)cc1)C(=O)O; Phe(3-OMe) = COc1cccc(C[C@H](N)C(=O)O)c1; Phe(4-CN) = N#Cc1ccc(C[C@H](N)C(=O)O)cc1; Phe(3-Me) = Cc1cccc(C[C@H](N)C(=O)O)c1; 4Pal = N[C@@H](Cc1ccncc1)C(=O)O; Cha = N[C@@H](CC1CCCCC1)C(=O)O; Cit = NC(=O)NCCC[C@H](N)C(=O)O; Ile(3ξ) = CCC(C)[C@H](N)C(=O)O; Thr(3ξ) = CC(O)[C@H](N)C(=O)O; Pip = O=C(O)[C@@H]1CCCCN1; Carboxymethyl = O=C(O)C*; NMeA = CN[C@@H](C)C(=O)O; Orn = NCCC[C@H](N)C(=O)O; Dab = NCC[C@H](N)C(=O)O; Dap = NC[C@H](N)C(=O)O

These compounds were tested against T1, PE-labeled human PD-L1-Ig binding to Jurkat cell line over-expressing human PD-1 (Jurkat-PD-1) (Homo sapiens, UniProt Q15116) (assay: Jurkat-PD-1 Cell Binding High-Content Screening Assay (CBA): Method 1). Conditions: Jurkat-hPD-1 cells, PE-labeled PD-L1-Ig 20 nM final; read-out: Jurkat HPDL1 PD1 IC50 (uM) (Method 1).
T1 construct: expressed in transfected cells; host or cells: Jurkat
T1 sequence (Q15116 25-288): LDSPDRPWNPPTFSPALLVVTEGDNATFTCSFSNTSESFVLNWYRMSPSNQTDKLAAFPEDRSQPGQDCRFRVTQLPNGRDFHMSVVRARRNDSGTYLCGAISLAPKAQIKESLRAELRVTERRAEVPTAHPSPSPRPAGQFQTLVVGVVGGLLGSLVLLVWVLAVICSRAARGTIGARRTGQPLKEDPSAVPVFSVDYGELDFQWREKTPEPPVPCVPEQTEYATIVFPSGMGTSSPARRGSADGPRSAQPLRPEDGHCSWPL
`Cc1cccc(C[C@@H]2NC(=O)[C@H](CC(=O)O)NC(=O)[C@H](Cc3ccc(OCC(=O)O)cc3)NC(=O)[C@H](CC(N)=O)NC(=O)CSC[C@@H](C(N)=O)NC(=O)[C@H]([C@@H](C)O)NC(=O)[C@H](C(C)C)NC(=O)[C@H](CC3CCCCC3)NC(=O)[C@H](CCN)NC(=O)[C@@H](CC(C)C)NC(=O)[C@H](C)N(C)C(=O)[C@H](Cc3ccc(OCC(=O)O)cc3)NC(=O)[C@H](Cc3ccc(-c4ccccc4)cc3)NC(=O)[C@H](Cc3ccc(OCC(=O)O)cc3)NC2=O)c1` [Compound 1666] ({CH2CO}-NY(Carboxymethyl)D[Phe(3-Me)]Y(Carboxymethyl)[Bip]Y(Carboxymethyl)[NMeA][dL][Dab][Cha]VTC-NH2; thioether N-14) was tested, and the IC50 was 0.09 µM.
Work on `COc1cccc(C[C@@H]2NC(=O)[C@H](Cc3ccccc3)NC(=O)CSC[C@@H](C(=O)N[C@@H](C)C(N)=O)NC(=O)[C@H](CO)NC(=O)[C@H](C(C)C)NC(=O)[C@H](CC(C)C)NC(=O)[C@H](CC(N)=O)NC(=O)[C@@H](C)NC(=O)[C@H](C)N(C)C(=O)[C@H](C(C)C)NC(=O)[C@H](Cc3ccc(-c4ccccc4)cc3)NC(=O)[C@H](CC(C)C)NC(=O)[C@H](Cc3c[nH]c4ccccc34)NC(=O)[C@H](CC(=O)O)NC2=O)c1` [Compound 1732] ({CH2CO}-F[Phe(3-OMe)]DWL[Bip]V[NMeA][dA]NLVSCA-NH2; thioether N-14) yielded an IC50 of 0.01 µM.
Work on `Cc1cccc(C[C@@H]2NC(=O)[C@H](CC(=O)O)NC(=O)[C@H](Cc3ccc(OCC(=O)O)cc3)NC(=O)[C@H](C(C)O)NC(=O)CSC[C@@H](C(=O)N[C@@H](CO)C(=O)O)NC(=O)[C@H](C(C)O)NC(=O)[C@H](C(C)C)NC(=O)[C@H](CC3CCCCC3)NC(=O)[C@H](CCN)NC(=O)[C@@H](CC(C)C)NC(=O)[C@H](C)N(C)C(=O)[C@H](Cc3ccc(OCC(=O)O)cc3)NC(=O)[C@H](Cc3ccc(-c4ccccc4)cc3)NC(=O)[C@H](Cc3ccc(C(=O)O)cc3)NC2=O)c1` (stereo partly drawn) [Compound 2231] ({CH2CO}-[Thr(3ξ)]Y(Carboxymethyl)D[Phe(3-Me)][Phe(4-COOH)][Bip]Y(Carboxymethyl)[NMeA][dL][Dab][Cha]V[Thr(3ξ)]CS-OH; thioether N-14) yielded an IC50 of 0.02 µM.
`Cc1cccc(C[C@@H]2NC(=O)[C@H](CC(=O)O)NC(=O)[C@H](Cc3ccc(OCC(=O)O)cc3)NC(=O)[C@H](CN)NC(=O)CSC[C@@H](C(N)=O)NC(=O)[C@H](CCC(=O)O)NC(=O)[C@H](C(C)C)NC(=O)[C@H](CC3CCCCC3)NC(=O)[C@H](CCN)NC(=O)[C@@H](CC(C)C)NC(=O)[C@@H]3CCCCN3C(=O)[C@H](Cc3ccc(OCC(=O)O)cc3)NC(=O)[C@H](Cc3ccc(-c4ccccc4)cc3)NC(=O)[C@H](Cc3ccc(OCC(=O)O)cc3)NC2=O)c1` [Compound 1894] ({CH2CO}-[Dap]Y(Carboxymethyl)D[Phe(3-Me)]Y(Carboxymethyl)[Bip]Y(Carboxymethyl)[Pip][dL][Dab][Cha]VEC-NH2; thioether N-14) showed an IC50 of 0.3 µM.
`CC(C)C[C@@H]1NC(=O)[C@H](CCCN)NC(=O)[C@@H](CC(C)C)NC(=O)[C@H](C)N(C)C(=O)[C@H](CCCNC(=N)N)NC(=O)[C@H](Cc2ccc(-c3ccccc3)cc2)NC(=O)[C@H](C(C)C)NC(=O)[C@H](Cc2c[nH]c3ccccc23)NC(=O)[C@H](CC(=O)O)NC(=O)[C@H](Cc2ccc(O)cc2)NC(=O)[C@H](CC(N)=O)NC(=O)CSC[C@@H](C(=O)N[C@@H](C)C(N)=O)NC(=O)[C@H]([C@@H](C)O)NC(=O)[C@H](C(C)C)NC1=O` [Compound 1128] ({CH2CO}-NYDWV[Bip]R[NMeA][dL][Orn]LVTCA-NH2; thioether N-14) was tested, and the IC50 was 0.08 µM.
With `CC(C)C[C@@H]1NC(=O)[C@H](CCN)NC(=O)[C@@H](CC(C)C)NC(=O)[C@H](C)N(C)C(=O)[C@H](CCCNC(=N)N)NC(=O)[C@H](Cc2ccc(-c3ccccc3)cc2)NC(=O)[C@H](C(C)C)NC(=O)[C@H](Cc2c[nH]c3ccccc23)NC(=O)[C@H](CC(=O)O)NC(=O)[C@H](Cc2ccc(C#N)cc2)NC(=O)[C@H](CC(N)=O)NC(=O)CSC[C@@H](C(=O)N[C@@H](C)C(N)=O)NC(=O)[C@H]([C@@H](C)O)NC(=O)[C@H](C(C)C)NC1=O` [Compound 1306] ({CH2CO}-N[Phe(4-CN)]DWV[Bip]R[NMeA][dL][Dab]LVTCA-NH2; thioether N-14) the IC50 was 0.05 µM.
Work on `CC(C)C[C@@H]1NC(=O)[C@H](CCCNC(=N)N)NC(=O)[C@@H](CC(C)C)NC(=O)[C@H](C)N(C)C(=O)[C@H](CCCNC(=N)N)NC(=O)[C@H](Cc2ccc(-c3ccccc3)cc2)NC(=O)[C@H](C(C)C)NC(=O)[C@H](Cc2c[nH]c3ccccc23)NC(=O)[C@H](CC(=O)O)NC(=O)[C@H](Cc2ccc(O)cc2)NC(=O)[C@H](CC(N)=O)NC(=O)CSC[C@@H](C(=O)NCC(N)=O)NC(=O)[C@H](CO)NC(=O)[C@H](C(C)C)NC1=O` [Compound 1253] ({CH2CO}-NYDWV[Bip]R[NMeA][dL]RLVSCG-NH2; thioether N-14) yielded an IC50 of 0.03 µM.
`CCC(C)[C@@H]1NC(=O)[C@H](Cc2ccc(-c3ccccc3)cc2)NC(=O)[C@H](CC(C)C)NC(=O)[C@H](Cc2c[nH]c3ccccc23)NC(=O)[C@H](CC(=O)O)NC(=O)[C@H](Cc2ccc(C(=O)O)cc2)NC(=O)[C@H](Cc2ccc(OCC(=O)O)cc2)NC(=O)CSC[C@@H](C(=O)N[C@@H](CCN)C(N)=O)NC(=O)[C@H]([C@@H](C)O)NC(=O)[C@H](C(C)C)NC(=O)[C@H](CC2CCCCC2)NC(=O)[C@H](CCN)NC(=O)[C@@H](CC(C)C)NC(=O)[C@H](C)N(C)C1=O` (stereo partly drawn) [Compound 1926] ({CH2CO}-Y(Carboxymethyl)[Phe(4-COOH)]DWL[Bip][Ile(3ξ)][NMeA][dL][Dab][Cha]VTC[Dab]-NH2; thioether N-14) was tested, and the IC50 was 0.01 µM.
`Cc1cccc(C[C@@H]2NC(=O)[C@H](CC(=O)O)NC(=O)[C@H](Cc3ccc(C(=O)O)cc3)NC(=O)[C@H](Cc3ccc(OCC(=O)O)cc3)NC(=O)CSC[C@@H](C(N)=O)NC(=O)[C@H](CO)NC(=O)[C@H](C(C)C)NC(=O)[C@H](CC(C)C)NC(=O)[C@H](CC(N)=O)NC(=O)[C@@H](CC(C)C)NC(=O)[C@H](C)N(C)C(=O)[C@H](CCCNC(N)=O)NC(=O)[C@H](Cc3ccc(-c4ccccc4)cc3)NC(=O)[C@H](CC(C)C)NC2=O)c1` [Compound 1643] ({CH2CO}-Y(Carboxymethyl)[Phe(4-COOH)]D[Phe(3-Me)]L[Bip][Cit][NMeA][dL]NLVSC-NH2; thioether N-14) gave an IC50 of 0.08 µM.
Work on `CC(C)C[C@@H]1NC(=O)[C@H](Cc2c[nH]c3ccccc23)NC(=O)[C@H](CC(=O)O)NC(=O)[C@H](Cc2ccncc2)NC(=O)[C@H](CN)NC(=O)CSC[C@@H](C(=O)NCC(N)=O)NC(=O)[C@H](CO)NC(=O)[C@H](C(C)C)NC(=O)[C@H](CC(C)C)NC(=O)[C@H](CC(N)=O)NC(=O)[C@@H](CC(C)C)NC(=O)[C@H](C)N(C)C(=O)[C@H](C(C)C)NC(=O)[C@H](Cc2ccc(-c3ccccc3)cc2)NC1=O` [Compound 1549] ({CH2CO}-[Dap][4Pal]DWL[Bip]V[NMeA][dL]NLVSCG-NH2; thioether N-14) yielded an IC50 of 0.04 µM.
In the case of `CC(C)C[C@@H]1NC(=O)[C@H](CCCNC(=N)N)NC(=O)[C@@H]([C@H](C)O)NC(=O)[C@H](C)N(C)C(=O)[C@H](CCCNC(=N)N)NC(=O)[C@H](Cc2ccc(-c3ccccc3)cc2)NC(=O)[C@H](C(C)C)NC(=O)[C@H](Cc2c[nH]c3ccccc23)NC(=O)[C@H](CC(=O)O)NC(=O)[C@H](Cc2ccc(O)cc2)NC(=O)[C@H](Cc2ccccc2)NC(=O)CSC[C@@H](C(=O)N[C@@H](C)C(N)=O)NC(=O)[C@H]([C@@H](C)O)NC(=O)[C@H](C(C)C)NC1=O` [Compound 1058] ({CH2CO}-FYDWV[Bip]R[NMeA][dT]RLVTCA-NH2; thioether N-14), the IC50 is reported as 0.91 µM.
`CC(C)C[C@@H]1NC(=O)[C@H](CCCN)NC(=O)[C@@H](CC(C)C)NC(=O)[C@H](C)N(C)C(=O)[C@H](CCC(=O)O)NC(=O)[C@H](Cc2ccc(-c3ccccc3)cc2)NC(=O)[C@H](C(C)C)NC(=O)[C@H](Cc2c[nH]c3ccccc23)NC(=O)[C@H](CC(=O)O)NC(=O)[C@H](Cc2ccc(O)cc2)NC(=O)[C@H](CC(N)=O)NC(=O)CSC[C@@H](C(=O)N[C@@H](C)C(N)=O)NC(=O)[C@H](CO)NC(=O)[C@H](C(C)C)NC1=O` [Compound 1240] ({CH2CO}-NYDWV[Bip]E[NMeA][dL][Orn]LVSCA-NH2; thioether N-14) showed an IC50 of 0.04 µM.
`CC[C@H](C)[C@@H]1NC(=O)[C@H](Cc2ccc(-c3ccccc3)cc2)NC(=O)[C@H](C(C)C)NC(=O)[C@H](Cc2c[nH]c3ccccc23)NC(=O)[C@H](CC(=O)O)NC(=O)[C@H](Cc2ccc(O)cc2)NC(=O)[C@H](CC(N)=O)NC(=O)CSC[C@@H](C(=O)N[C@@H](C)C(N)=O)NC(=O)[C@H]([C@@H](C)O)NC(=O)[C@H](C(C)C)NC(=O)[C@H](CC(C)C)NC(=O)[C@H](CCCNC(=N)N)NC(=O)[C@@H](CC(C)C)NC(=O)[C@H](C)N(C)C1=O` [Compound 1490] ({CH2CO}-NYDWV[Bip]I[NMeA][dL]RLVTCA-NH2; thioether N-14) was tested, and the IC50 was 0.07 µM.
Compound `CCC(C)[C@@H]1NC(=O)[C@H](Cc2ccc(-c3ccccc3)cc2)NC(=O)[C@H](C(C)C)NC(=O)[C@H](Cc2cccc(C)c2)NC(=O)[C@H](CC(=O)O)NC(=O)[C@H](Cc2ccc(OCC(=O)O)cc2)NC(=O)[C@H](C(C)O)NC(=O)CSC[C@@H](C(=O)N[C@@H](CCN)C(N)=O)NC(=O)[C@H](C(C)O)NC(=O)[C@H](C(C)C)NC(=O)[C@H](CC2CCCCC2)NC(=O)[C@H](CCN)NC(=O)[C@@H](CC(C)C)NC(=O)[C@H](C)N(C)C1=O` (stereo partly drawn) [Compound 2116] ({CH2CO}-[Thr(3ξ)]Y(Carboxymethyl)D[Phe(3-Me)]V[Bip][Ile(3ξ)][NMeA][dL][Dab][Cha]V[Thr(3ξ)]C[Dab]-NH2; thioether N-14) has an IC50 of 0.01 µM.
In the case of `CC(C)C[C@@H]1NC(=O)[C@H](Cc2c[nH]c3ccccc23)NC(=O)[C@H](CC(=O)O)NC(=O)[C@H](Cc2ccc(O)cc2)NC(=O)[C@H](Cc2ccccc2)NC(=O)CSC[C@@H](C(=O)N[C@@H](C)C(N)=O)NC(=O)[C@H](CO)NC(=O)[C@H](C(C)C)NC(=O)[C@H](CC(C)C)NC(=O)[C@H](CCC(=O)O)NC(=O)[C@@H](C)NC(=O)[C@H](C)N(C)C(=O)[C@H](C(C)C)NC(=O)[C@H](Cc2ccc(-c3ccccc3)cc2)NC1=O` [Compound 1749] ({CH2CO}-FYDWL[Bip]V[NMeA][dA]ELVSCA-NH2; thioether N-14), the IC50 is reported as 0.02 µM.
